According to patent publication US9125913B2, “Bcl-2-selective apoptosis-inducing agents for the treatment of cancer and immune diseases” (AbbVie Inc., priority 2008, dated 2015):
pEC50, pKi: −log10 of the molar value. Read-outs that look alike come from different tables or passages of the source.

Columns and labels:
circulating platelets [1] = conditions: following injection into C57BL/6 mice; cited from earlier work
circulating platelets [2] = conditions: following injection in beagle canines; cited from earlier work
GST-Bcl-XL = GST-Bcl-XL (Homo sapiens (Human), UniProt Q07817); experiment: TR-FRET binding assay, Bcl-XL; conditions: GST-Bcl-XL 1 nM, F-Bak probe 100 nM, Tb-anti-GST 1 nM
Experimental: Tb-anti-GST antibody was purchased from Invitrogen (Catalog No. PV4216).
Representative compounds were serially diluted in dimethyl sulfoxide (DMSO) starting at 50 μM (2× starting concentration; 10% DMSO) and 10 μL were transferred into a 384-well plate.
The samples were then mixed on a shaker for 1 minute and incubated for an additional 3 hours at room temperature. For each assay, the probe/antibody and protein/probe/antibody were included on each assay plate as negative and positive controls, respectively. Fluorescence was measured on the Envision (Perkin Elmer) using a 340/35 nm excitation filter and 520/525 (F-Bak peptide) and 495/510 nm (Tb-labeled anti-Histidine antibody) emission filters.
The inhibition constant (Ki) is the dissociation constant of an enzyme-inhibitor complex or a protein/small molecule complex, wherein the small molecule is inhibiting binding of one protein to another protein or peptide. […] Inhibition constants were determined using Wang's equation (Wang Z-X., An Exact Mathematical Expression For Describing Competitive Binding Of Two Different Ligands To A Protein Molecule. FEBS Lett. 1995, 360:111-4).

GST-Bcl-2 [3] = biological target: GST-Bcl-2 (Homo sapiens (Human), UniProt P10415); experiment: TR-FRET binding assay, Bcl-2; conditions: TR-FRET; GST-Bcl-2 1 nM, F-Bak probe 100 nM, Tb-anti-GST 1 nM
Outline: (§1)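 Ki values come from Wang's competitive-binding equation applied to TR-FRET signal (excitation 340/35 nm; emission 520/525 nm F-Bak peptide, 495/510 nm Tb antibody). Protein, probe and antibody incubated with compound 3 h at room temperature; dilution series began at 50 μM as 2× stock in 10% DMSO.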

GST-Bcl-2 [4] = experiment: TR-FRET binding assay, Bcl-2; conditions: TR-FRET Ki values
Outline: as §1

FL5.12/Bcl-2 cells = experiment: FL5.12/Bcl-2 cell viability assay; type: cell-based, murine; conditions: for Selectivity Ratio (Platelet EC50/FL5.12/Bcl-2 EC50): ratio of canine platelet EC50 to FL5.12/Bcl-2 EC50
Outline: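 Viability measured with CellTiter-Glo after 24 h compound treatment at various concentrations, following 48 h IL-3 withdrawal (no WEHI-3B medium). Cells: prolymphocytic mouse FL5.12 line stably transfected to overexpress Bcl-2, cultured at 37 °C, 5% CO2.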

[5] = tested on: isolated canine platelets; experiment: Platelet cell viability assay; type: cell-based; conditions: Canis lupus familiaris, 5 h; isolated canine platelets (platelet-rich plasma), five hours at 37° C., Cell Titer Glo
Experimental: After the incubation, platelets were equilibrated to room temperature for 20 minutes and then an equal volume of Cell Titer Glo reagent (Promega Corporation) was added. Samples were mixed for two minutes and then allowed to equilibrate for an additional 10 minutes at room temperature. The luminescence generated from the samples was quantitated using an LJL Analyst plate reader.
The effect of compounds on platelet survival can be directly evaluated ex vivo by examining the viability of isolated canine platelets in the presence of various concentrations of compound.

GST-Bcl-XL, sequence (Q07817 whole entry): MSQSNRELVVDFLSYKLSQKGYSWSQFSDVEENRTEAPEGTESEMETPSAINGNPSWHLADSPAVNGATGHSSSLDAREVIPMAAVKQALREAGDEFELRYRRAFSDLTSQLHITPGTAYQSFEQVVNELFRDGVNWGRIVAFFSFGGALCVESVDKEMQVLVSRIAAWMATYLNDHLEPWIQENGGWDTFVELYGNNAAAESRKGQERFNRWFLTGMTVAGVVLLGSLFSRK
GST-Bcl-2 (Homo sapiens (Human), UniProt P10415), sequence (P10415 whole entry, looked up): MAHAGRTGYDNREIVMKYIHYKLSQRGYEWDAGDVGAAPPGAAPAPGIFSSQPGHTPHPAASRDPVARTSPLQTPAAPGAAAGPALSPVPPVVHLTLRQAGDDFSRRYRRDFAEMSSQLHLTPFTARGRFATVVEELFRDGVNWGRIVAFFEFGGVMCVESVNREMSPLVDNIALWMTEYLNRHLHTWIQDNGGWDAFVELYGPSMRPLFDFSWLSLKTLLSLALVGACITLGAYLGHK

Row | Structure (SMILES) | Binding selectivity ratio (Bcl-XL Ki/Bcl-2 Ki) (GST-Bcl-2 [4]) | Selectivity Ratio (Platelet EC50/FL5.12/Bcl-2 EC50) (FL5.12/Bcl-2 cells) | also measured
1 | CN(C)CC[C@H](CSc1ccccc1)Nc1ccc(S(=O)(=O)NC(=O)c2ccc(N3CCN(Cc4ccccc4-c4ccc(Cl)cc4)CC3)cc2)cc1[N+](=O)[O-] [ABT-737, 4-(4-((4′-chloro-1,1′-biphenyl-2-yl)methyl)piperazin-1-yl)-N-((4-(((1R)-3-(dimethylamino)-1-((phenylthio)methyl)propyl)amino)-3-nitrophenyl)sulfonyl)benzamide] |  |  | decrease in circulating platelets (circulating platelets [1]): rapid, concentration dependant decrease in circulating platelets; decrease in circulating platelets (circulating platelets [2]): rapid, concentration dependant decrease in circulating platelets
2 | CN1CCC(Nc2ccc(S(=O)(=O)NC(=O)c3ccc(N4CCN(CC5=C(c6ccc(Cl)cc6)CC(C)(C)CC5)CC4)cc3Oc3ccc4[nH]ccc4c3)cc2S(=O)(=O)C(F)(F)F)CC1 [Example 76, 4-(4-{[2-(4-chlorophenyl)-4,4-dimethylcyclohex-1-en-1-yl]methyl}piperazin-1-yl)-2-(1H-indol-5-yloxy)-N-({4-[(1-methylpiperidin-4-yl)amino]-3-[(trifluoromethyl)sulfonyl]phenyl}sulfonyl)benzamide] | 64.5 | 221 | pKi (GST-Bcl-XL): 5.00; pKi (GST-Bcl-2 [3]): 10.30
3 | CN1CCC(Nc2ccc(S(=O)(=O)NC(=O)c3ccc(N4CCN(CC5=C(c6ccc(Cl)cc6)CCC5)CC4)cc3Oc3cccc4[nH]ccc34)cc2[N+](=O)[O-])CC1 [Example 148, 4-(4-{[2-(4-chlorophenyl)cyclopent-1-en-1-yl]methyl}piperazin-1-yl)-2-(1H-indol-4-yloxy)-N-({4-[(1-methylpiperidin-4-yl)amino]-3-nitrophenyl}sulfonyl)benzamide] | >228.4 | 278 | pEC50 [5]: 3.92; pEC50 (FL5.12/Bcl-2 cells; Mus musculus, FL5.12/Bcl-2 cells, IL-3 withdrawal, 24 hrs treatment, CellTitre Glo): 7.15
4 | CN(C)CCCNc1ccc(S(=O)(=O)NC(=O)c2ccc(N3CCN(CC4=C(c5ccc(Cl)cc5)CC(C)(C)CC4)CC3)cc2Oc2ccc3[nH]ccc3c2)cc1S(=O)(=O)C(F)(F)F [Example 170, 4-(4-{[2-(4-chlorophenyl)-4,4-dimethylcyclohex-1-en-1-yl]methyl}piperazin-1-yl)-N-({4-{[3-(dimethylamino)propyl]amino}-3-[(trifluoromethyl)sulfonyl]phenyl}sulfonyl)-2-(1H-indol-5-yloxy)benzamide] | 30.2 | 507 | 
5 | CN(C)CCCNc1ccc(S(=O)(=O)NC(=O)c2ccc(N3CCN(CC4=C(c5ccc(Cl)cc5)CC(C)(C)CC4)CC3)cc2Oc2ccc3[nH]ccc3c2)cc1C(F)(F)F [Example 171, 4-(4-{[2-(4-chlorophenyl)-4,4-dimethylcyclohex-1-en-1-yl]methyl}piperazin-1-yl)-N-{[4-{[3-(dimethylamino)propyl]amino}-3-(trifluoromethyl)phenyl]sulfonyl}-2-(1H-indol-5-yloxy)benzamide] | 17.7 | >181 | 
6 | CN(C)CCCNc1ccc(S(=O)(=O)NC(=O)c2ccc(N3CCN(CC4=C(c5ccc(Cl)cc5)CC(C)(C)CC4)CC3)cc2Oc2ccc3[nH]ccc3c2)cc1C#N [Example 172, 4-(4-{[2-(4-chlorophenyl)-4,4-dimethylcyclohex-1-en-1-yl]methyl}piperazin-1-yl)-N-[(3-cyano-4-{[3-(dimethylamino)propyl]amino}phenyl)sulfonyl]-2-(1H-indol-5-yloxy)benzamide] | 32.1 | >257 | 
7 | CC1(C)CCC(CN2CCN(c3ccc(C(=O)NS(=O)(=O)c4ccc(NC5CCN(C6CCOCC6)CC5)c([N+](=O)[O-])c4)c(Oc4ccc5[nH]ccc5c4)c3)CC2)=C(c2ccc(Cl)cc2)C1 [Example 173, 4-(4-{[2-(4-chlorophenyl)-4,4-dimethylcyclohex-1-en-1-yl]methyl}piperazin-1-yl)-2-(1H-indol-5-yloxy)-N-({3-nitro-4-[(1-tetrahydro-2H-pyran-4-ylpiperidin-4-yl)amino]phenyl}sulfonyl)benzamide] | 204.6 | >4587 | 
8 | CN1CCN(Nc2ccc(S(=O)(=O)NC(=O)c3ccc(N4CCN(CC5=C(c6ccc(Cl)cc6)CC(C)(C)CC5)CC4)cc3Oc3ccc4[nH]ccc4c3)cc2[N+](=O)[O-])CC1 [Example 174, 4-(4-{[2-(4-chlorophenyl)-4,4-dimethylcyclohex-1-en-1-yl]methyl}piperazin-1-yl)-2-(1H-indol-5-yloxy)-N-({4-[(4-methylpiperazin-1-yl)amino]-3-nitrophenyl}sulfonyl)benzamide] | 591.3 | 1857 | 
